From ChEMBL document CHEMBL5260799, “Pterocarpan scaffold: A natural lead molecule with diverse pharmacological properties” (Eur J Med Chem, 2017)
Converted amounts (≈) assume the structure as drawn.

Legend:
[1] = Cytotoxicity activity against human Lucena 1 cells assessed as reduction in cell viability […] measured after 72 hrs by MTT assay; format: functional, cell-based; conditions: Lucena 1, 72 h
K562 = assay: Cytotoxicity activity against human K562 cells assessed as reduction in cell viability […] measured after 72 hrs by MTT assay; format: functional, cell-based; conditions: K562, 72 h
MCF7 = assay: Antiproliferative activity against human MCF7 cells assessed as inhibition of cell proliferation incubated for 72 hrs by MTT assay; format: functional, cell-based; conditions: MCF7, 72 h
A2780 = assay: Antiproliferative activity against human A2780 cells assessed as reduction in cell viability incubated for 96 hrs by MTT assay; format: functional, cell-based; conditions: A2780, 96 h
[2] = Inhibition of melanin in human melanocyte; format: functional, cell-based
J774.A1 [3] = assay: Anti-inflammatory activity against mouse J774.A 1 macrophage assessed as reduction in LPS-induced TNFalpha expression by RT-PCR analysis; format: functional; set-up: scale not given: the % may be the effect or the level left
J774.A1 [4] = assay: Anti-inflammatory activity against mouse J774.A 1 macrophage assessed as reduction in LPS-induced IL-6 expression by RT-PCR analysis; format: functional; set-up: scale not given: the % may be the effect or the level left
[5] = Cytotoxicity against mouse RAW264.7 cells assessed as increase in NO production measured after 48 hrs by MTT assay; format: toxicity, cell-based
Mus musculus = species on record: Mus musculus; assay: Reduction in hepatic steatosis in HFD-induced C57BL/6J mouse model assessed as reduction in serum LDL level […]; format: functional, organism-based
RAW264.7 = assay: Antiinflammatory activity in mouse RAW264.7 cells assessed as inhibition of LPS-induced NO production at 50 uM measured after 24 hrs by Griess method; format: functional, cell-based; conditions: RAW264.7, 24 h
Staphylococcus aureus [6] = assay: Antibacterial activity against methicillin-resistant Staphylococcus aureus assessed as bacterial growth inhibition; format: functional, organism-based
Staphylococcus aureus [7] = assay: Antibacterial activity against methicillin-resitant Staphylococcus aureus N1 assessed as reduction in bacterial growth by microbroth dilution method; format: functional
CCRF-CEM = assay: Cytotoxicity against human CCRF-CEM cells assessed as reduction in cell viability incubated for 72 hrs by MTT assay; format: functional, cell-based
Neuraminidase = Neuraminidase (Influenza A virus, UniProt B4URF0); assay: Inhibition of Influenza A virus H5N1 neuraminidase
Plasmodium falciparum [8] = assay: Antiplasmodial activity against Plasmodium falciparum W2 assessed as reduction in plasmodial growth after 48 hrs by fluorescence based analysis; format: functional, organism-based; conditions: W2, 48 h
Plasmodium falciparum [9] = assay: Antiplasmodial activity against Plasmodium falciparum D6 assessed as reduction in plasmodial growth after 48 hrs by fluorescence based analysis; format: functional, organism-based; conditions: D6, 48 h
HeLa = assay: Cytotoxicity against human HeLa cells assessed as reduction in cell proliferation incubated for 24 hrs by MTT assay; format: functional, cell-based
DLD-1 = assay: Cytotoxicity against human DLD-1 cells assessed as reduction in cell proliferation incubated for 24 hrs by MTT assay; format: functional, cell-based; conditions: DLD-1, 24 h
Staphylococcus aureus [10] = assay: Antibacterial activity against Staphylococcus aureus ATCC 25923 assessed as bacterial growth inhibition by broth dilution method; format: functional, organism-based
Staphylococcus aureus [11] = assay: Antibacterial activity against methicillin-resistant Staphylococcus aureus ATCC 25923 assessed as bacterial growth inhibition by broth dilution method; format: functional, organism-based
[12] = test system: Mycobacterium tuberculosis; assay: Antimycobacterial activity against Mycobacterium tuberculosis H37Rv assessed as inhibition of bacterial growth by Microplate alamar blue assay; format: functional, organism-based
KB = assay: Cytotoxicity against human KB cells assessed as reduction in cell viability by colorimetric assay; format: functional, cell-based
Breast carcinoma cell = assay: Cytotoxicity against human Breast carcinoma cell assessed as reduction in cell viability by colorimetric assay; format: functional, cell-based
Plasmodium falciparum [13] = assay: Antiplasmodial activity against Plasmodium falciparum K1 assessed as reduction in parasite growth by fluorescence based assay; format: functional, organism-based
Streptococcus agalactiae = assay: Antibacterial activity against Streptococcus agalactiae ATCC 12386 assessed as reduction in bacterial growth by microbroth dilution method; format: functional
HL-60 = assay: Antiproliferative activity against human HL-60 cells assessed as reduction in cell viability at 12.5 ug/ml by tryphan blue staining assay; format: functional; conditions: dose 12.5 µg/ml

Chain of Neuraminidase (B4URF0 whole entry): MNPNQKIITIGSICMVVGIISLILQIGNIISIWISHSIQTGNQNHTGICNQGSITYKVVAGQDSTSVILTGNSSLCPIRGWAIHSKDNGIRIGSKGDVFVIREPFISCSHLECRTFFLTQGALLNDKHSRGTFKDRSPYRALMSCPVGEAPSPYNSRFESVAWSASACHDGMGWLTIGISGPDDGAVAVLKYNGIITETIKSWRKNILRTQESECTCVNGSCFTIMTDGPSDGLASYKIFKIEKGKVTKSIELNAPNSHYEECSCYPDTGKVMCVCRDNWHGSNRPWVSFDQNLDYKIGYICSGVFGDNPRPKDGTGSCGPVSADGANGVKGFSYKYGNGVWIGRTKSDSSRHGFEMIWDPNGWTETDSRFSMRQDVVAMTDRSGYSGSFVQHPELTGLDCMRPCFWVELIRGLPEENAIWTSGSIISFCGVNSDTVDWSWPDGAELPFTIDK

SMILES: O=C1C2=C(C(=O)c3ccccc31)[C@H]1Oc3cc4c(cc3[C@H]1CO2)OCO4
- IC50 [1]: 5.47 µM
- IC50 (K562): 4.63 µM

SMILES: COc1cc2c(cc1O)C1COC3C(=O)c4ccccc4C(=O)C3C1O2 (stereo unspecified)
- IC50 (MCF7): 7.8 µM

SMILES: C=C(CO)[C@H]1Cc2cc3c(cc2O1)OC[C@H]1c2cc4c(cc2O[C@@H]31)OCO4
- IC50 (A2780): > 54.4 µM

SMILES: CC(C)=CCc1c(O)c(C)cc2c1O[C@H]1c3cc4c(cc3OC[C@@H]21)OC(C)(C)C=C4 [LESPECYRTIN E5]
- IC50 [2]: 1.5 µM

SMILES: COc1ccc2c(c1)OC[C@H]1c3cc(O)c(OC)c(CC=C(C)C)c3O[C@@H]21 [LESPEFLORIN G8]
- IC50 [2]: 1.63 µM

SMILES: OC[C@H]1O[C@H](Oc2ccc3c(c2)OCC2c4cc5c(cc4OC32)OCO5)[C@H](O)[C@@H](O)[C@@H]1O (stereo partly specified)
- Activity (J774.A1 [3]): 25%
- Activity (J774.A1 [4]): 25%

SMILES: CC(=O)/C(C)=C/c1c(O)ccc2c1O[C@H]1c3ccc(O)cc3OC[C@@H]21
- IC50 at 48 h [5]: 19 µM

SMILES: C=C(C)[C@@H]1Cc2cc3c(cc2O1)OC[C@@]1(O)c2ccc(O)cc2O[C@@H]31 [GLYCEOLLIN III]
- IC50 (Mus musculus): 45 µM

SMILES: COc1ccc2c(c1OC)O[C@H]1c3ccc(O[C@H]4O[C@H](CO)[C@@H](O)[C@H](O)[C@H]4O)cc3OC[C@@H]21
- EC50 (RAW264.7): 14.7 µM

SMILES: COc1ccc2c(c1OC)O[C@H]1c3ccc(O[C@H]4O[C@H](COC(C)=O)[C@@H](O)[C@H](O)[C@H]4O)cc3OC[C@@H]21
- EC50 (RAW264.7): 28.7 µM

SMILES: CC(C)=CCc1cc2c(cc1O)OCc1c-2oc2c(CC=C(C)C)c(O)ccc12 [ERYCRYSTAGALLIN]
- IC50 (Staphylococcus aureus [6]): 6.25 µg/mL (≈ 16 µM)
- MIC (Staphylococcus aureus [7]): 0.78 µg/mL (≈ 2 µM)

SMILES: CC(C)=CCc1cc2c(cc1O)OC1c3ccc(O)cc3OCC21 (stereo unspecified)
- IC50 (CCRF-CEM): 3.73 µM

SMILES: CC(C)(O)c1cc2cc3c(cc2o1)OC[C@@]1(O)c2ccc(O)cc2O[C@@H]31
- IC50 (Mus musculus): 19.8 µM

SMILES: O=c1oc2cc(O)ccc2c2oc3cc(O)ccc3c12 [COUMESTROL]
- IC50 (Mus musculus): 0.9 µM
- IC50 (Neuraminidase): 37.8 µM

SMILES: COc1ccc2c(c1)OCc1c-2oc2c3c(c(O)cc12)OC(C)(C)C=C3 [LESPEFLORIN H2]
- IC50 [2]: 1.48 µM

SMILES: CC1(C)C=Cc2cc3c(cc2O1)OCC1c2ccc(O)cc2OC31 (stereo unspecified)
- IC50 (Plasmodium falciparum [8]): 17 µM
- IC50 (Plasmodium falciparum [9]): 19.4 µM

SMILES: COc1cc2c(cc1O)[C@@H]1Oc3c(cc(OC)c(OC)c3O)[C@@H]1CO2 [BRANDISIANIN F]
- IC50 (HeLa): > 25 µM
- IC50 (DLD-1): > 25 µM

SMILES: COc1cc2c(cc1O)[C@H]1COC3=C(C(=O)c4ccccc4C3=O)[C@H]1O2
- IC50 [1]: 2.57 µM

SMILES: COc1cc2c(cc1CC=C(C)C)[C@@H]1Oc3cc(O)ccc3[C@@H]1CO2
- IC50 (Staphylococcus aureus [6]): 6.25 µg/mL (≈ 18.5 µM)

SMILES: COc1ccc2c(c1CC=C(C)C)O[C@H]1c3ccc(C)cc3OC[C@@]21O
- IC50 (Staphylococcus aureus [10]): 64 µg/mL (≈ 182 µM)
- IC50 (Staphylococcus aureus [11]): 64 µg/mL (≈ 182 µM)

SMILES: COc1ccc2c(c1CC=C(C)C)O[C@H]1c3ccc(O)cc3OC[C@@]21O [ERYTHRABYSSIN I]
- IC50 (CCRF-CEM): 3.36 µM

SMILES: CC(C)=CCc1cc2c(cc1O)OC[C@H]1c3ccc(O)c(CC=C(C)C)c3O[C@@H]21 [ERYBRAEDIN C]
- IC50 [12]: 50 µg/mL (≈ 127 µM)
- IC50 (KB): 5.1 µg/mL (≈ 13 µM)
- IC50 (Breast carcinoma cell): 2.9 µg/mL (≈ 7.39 µM)
- IC50 (Plasmodium falciparum [13]): 5.5 µg/mL (≈ 14 µM)
- MIC (Streptococcus agalactiae): 0.78 µg/mL (≈ 1.99 µM)

SMILES: CC(C)=CCc1cc2c(cc1O)OC[C@H]1c3c4c(c(O)c(CC=C(C)C)c3O[C@@H]21)OC(C)(C)CC4
- IC50 [2]: 0.4 µM

SMILES: COc1ccc2c(c1)O[C@@H]1c3ccc(O)c(O)c3OC[C@H]21
- Activity (HL-60): 72.1%

SMILES: C=C(C)[C@H]1Cc2cc3c(cc2O1)OC[C@@H]1c2ccc(OC)c(O)c2O[C@H]31
- IC50 (A2780): 23.2 µM
